Source: PMC9972884 (Biochemistry, 2009)
Like-named read-outs stand apart in the source and are kept apart here.

Assays:
[1] = biological target: T1, GST-hPPARγ (recombinant human PPARγ) (Homo sapiens, UniProt P37231); test: Radioligand competition scintillation proximity binding assay, PPARγ
T1 sequence (P37231 1-505): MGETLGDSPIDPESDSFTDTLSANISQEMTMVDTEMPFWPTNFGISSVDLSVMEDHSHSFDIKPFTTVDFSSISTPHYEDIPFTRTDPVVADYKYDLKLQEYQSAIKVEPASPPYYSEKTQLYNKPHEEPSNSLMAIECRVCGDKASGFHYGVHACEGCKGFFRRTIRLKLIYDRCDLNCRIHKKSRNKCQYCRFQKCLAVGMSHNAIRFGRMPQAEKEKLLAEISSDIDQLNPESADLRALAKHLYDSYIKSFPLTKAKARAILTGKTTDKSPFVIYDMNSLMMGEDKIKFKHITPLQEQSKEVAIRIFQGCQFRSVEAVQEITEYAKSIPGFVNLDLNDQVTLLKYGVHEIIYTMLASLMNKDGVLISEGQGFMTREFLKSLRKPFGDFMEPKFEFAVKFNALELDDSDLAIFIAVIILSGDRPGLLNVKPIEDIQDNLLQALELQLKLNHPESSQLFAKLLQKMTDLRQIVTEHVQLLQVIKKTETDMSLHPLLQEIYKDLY

[2] = biological target: T2, GST-hPPARα (recombinant human PPARα) (Homo sapiens, UniProt Q07869); test: Radioligand competition scintillation proximity binding assay, PPARα
T2 sequence (Q07869 1-468): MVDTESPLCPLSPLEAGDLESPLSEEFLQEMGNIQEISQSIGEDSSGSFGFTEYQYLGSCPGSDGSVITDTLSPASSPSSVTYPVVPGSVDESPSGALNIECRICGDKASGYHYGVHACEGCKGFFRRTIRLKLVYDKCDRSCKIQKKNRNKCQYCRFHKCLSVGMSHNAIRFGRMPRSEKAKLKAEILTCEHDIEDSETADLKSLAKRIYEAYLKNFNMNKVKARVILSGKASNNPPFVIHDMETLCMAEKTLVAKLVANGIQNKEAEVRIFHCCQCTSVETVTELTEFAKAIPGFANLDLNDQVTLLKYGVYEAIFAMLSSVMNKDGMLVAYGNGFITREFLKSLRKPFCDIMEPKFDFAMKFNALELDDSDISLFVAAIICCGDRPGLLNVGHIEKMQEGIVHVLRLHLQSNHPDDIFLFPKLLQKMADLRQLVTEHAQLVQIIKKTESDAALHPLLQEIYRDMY

PPARγ = biological target: T3, PPARγ (Homo sapiens, UniProt P37231); format: cell-based; conditions: for PPARγ activation (in words): concentrations as high as 100 µM; for effect on induction by rosiglitazone (coincubation): 0–5 µM NO2-LA isomer with fixed 0.1 µM rosiglitazone; for mean induction as a percentage of induction by 0.1 µM rosiglitazone (100%): ligands at 5 µM, mean of 6–18 determinations ± SEM; for agonist (full or partial): relative to rosiglitazone, defined as full agonist
T3 sequence (P37231 1-477 isoform P37231-2): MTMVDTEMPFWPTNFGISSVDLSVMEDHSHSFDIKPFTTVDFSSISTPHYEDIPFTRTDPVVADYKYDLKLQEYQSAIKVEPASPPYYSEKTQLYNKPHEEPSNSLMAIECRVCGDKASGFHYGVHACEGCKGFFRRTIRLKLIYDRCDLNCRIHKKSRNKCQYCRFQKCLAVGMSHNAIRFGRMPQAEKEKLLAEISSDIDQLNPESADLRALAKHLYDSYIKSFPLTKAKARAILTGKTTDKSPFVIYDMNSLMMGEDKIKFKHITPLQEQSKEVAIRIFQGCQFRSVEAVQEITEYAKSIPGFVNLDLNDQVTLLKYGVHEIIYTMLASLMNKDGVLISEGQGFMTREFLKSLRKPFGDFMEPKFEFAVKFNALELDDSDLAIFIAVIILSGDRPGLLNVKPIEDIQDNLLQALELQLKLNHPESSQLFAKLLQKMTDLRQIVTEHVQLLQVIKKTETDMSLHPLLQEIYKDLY

Structure (SMILES): CCCCC/C=C\C/C=C\CCCCCCCC(=O)O [linoleic acid, (9Z,12Z)-octadeca-9,12-dienoic acid, reference compound]
- IC50 [1]: 10.7 µM
- binding affinity for PPARγ (in words) [1]: very low affinity
- IC50 [2]: > 15 µM
- PPARγ activation (in words) (PPARγ): negligible PPARγ activation
- PPARγ activation (in words) (PPARγ; listed as Linoleic acid): does not support activation

Structure (SMILES): CCCCC/C=C(\C/C=C\CCCCCCCC(=O)O)[N+](=O)[O-] [12-NO2-linoleic acid, (9Z,12E)-12-nitrooctadeca-9,12-dienoic acid]
- apparent affinity for PPARα (in words) [2]: very low
- effect on induction by rosiglitazone (coincubation) (PPARγ): less pronounced
- mean induction as a percentage of induction by 0.1 µM rosiglitazone (100%) (PPARγ): 76 ± 9%
- agonist (full or partial) (PPARγ): partial
- agonist (full or partial) (PPARγ; listed as 12-NO2): nearly full agonist activity
- agonist (full or partial) (PPARγ; listed as 12-NO2-LA): partial agonists

Structure (SMILES): CCCCC/C(=C\C/C=C\CCCCCCCC(=O)O)[N+](=O)[O-] [13-NO2-linoleic acid, (9Z,12E)-13-nitrooctadeca-9,12-dienoic acid]
- IC50 [1]: 0.44 µM
- IC50 [2]: > 15 µM
- EC50 fold higher than for 12-NO2-LA (PPARγ): more than 10 fold
- maximum level of PPARγ activation as % of that of the 12-NO2 isomer (PPARγ): ~ 50%
- effect on induction by rosiglitazone (coincubation) (PPARγ): significantly reduced the level of induction by rosiglitazone
- mean induction as a percentage of induction by 0.1 µM rosiglitazone (100%) (PPARγ): 41 ± 5%
- agonist (full or partial) (PPARγ): partial
- agonist (full or partial) (PPARγ; listed as 13-NO2-LA): partial agonists
